We go through 3 compounds from patent publication US20100190778A1, “3,4-DIHYDROBENZO[1,2,3]THIADIAZINE-1,1-DIOXIDE DERIVATIVES, PROCESS FOR PREPARATION THEREOF, MEDICAMENTS CONTAINING SAID DERIVATIVES AND THEIR USE” (EGIS GYOGYSZERGYAR NYILVANOSAN MUKODO RESZVENTARSASAG, priority 2006, published 2010).

One data set deals with male Sprague-Dawley rats. Briefly: elevated maze test in the rat (anxiolytic effect). Format: in vivo. As to conditions: per os, 60-min pretreatment, 5-min measurement, MED regarding time spent in the open arms and number of entries into the open arms. The protocol:
Pharmacological activity of the compounds of the general Formula (I) has been evaluated in elevated maze test in the rat.
The tests were carried out according to the method of S. Fellow and coworkers (J. Neurosci. Methods. 1985, 14, 149-167). During the test, a wooden-floor cross elevated by 50 cm from the ground was used. The length and the width of the arms of the cross were 100 and 15 cm, respectively. Two opposite arms of the cross are fitted at the ends and both sides with black plexiglass wall of 40 cm height (closed arms). The central section of the cross measuring 15 by 15 cm is open. The other two opposite arms of the cross are not provided with walls (open arms).
The tests were carried out in male Sprague-Dawley rats weighing 200 to 220 g. After the 60-min pretreatment time (per os treatment), animals were placed in the center of the maze. During the 5-min measurement time, four variables were recorded: the time spent in the open arms; the time spent in the closed arms; the number of entries into the open arms; the number of entries into the closed arms.
Animals normally avoid the open and light parts of the maze, thereby spending little time therein only. The anxiolytic effect of the compounds of the general Formula (I) is indicated by the increase in the time spent (in seconds) in the open arms and/or by the increase in the number of the entries into the open compartments of the maze. The minimum effective dose (MED) was determined for each tested compounds regarding the time spent in the open arms and the number of entries into the open arms. During the test, the known anxiolytic compound I-methyl-5-phenyl-7-chloro-1,3-dihydro-2H-1,4-benzodiazepin-2-one (INN: diazepam) of the Formula (IV)
was used. Treatment of the animals was carried out orally with the doses 0.1, 0.3, 1.0, 3.0 for diazepam and 0.01, 0.1, 1.0 mg/kg for the compounds of the general Formula (I).

For the compound `Cc1cc(Cl)c(Cl)c2c1C(C)NNS2(=O)=O` (stereo not drawn) [Example 5, 7,8-Dichloro-4,5-dimethyl-3,4-dihydrobenzo[1,2,3]thiadiazine-1,1-dioxide], the melting point (commonly the temperature, or range, at which the solid turns liquid) fell in the range of 197 to 199 °C. In addition, in the data set on male Sprague-Dawley rats, the “MED (minimum effective dose), anxiolytic effect in elevated maze test” value is given as 0.01 mg/kg p.o.
For `CC1NN(C)S(=O)(=O)c2c1ccc(Cl)c2Cl` (stereo not drawn) [Example 16, 7,8-Dichloro-2,4-dimethyl-3,4-dihydrobenzo[1,2,3]thiadiazine-1,1-dioxide] the same measures were 134 to 135 °C and 0.01 mg/kg p.o.
For `CN1NCc2ccc(Cl)c(Cl)c2S1(=O)=O` [Example 20, 7,8-Dichloro-2-methyl-3,4-dihydrobenzo[1,2,3]thiadiazine-1,1-dioxide] the same measures were 124 to 125 °C and 0.01 mg/kg p.o.
